Assays:
[1] = molecular target: 5-hydroxytryptamine receptor 5A (Homo sapiens) (UniProt P47898); test: 5-HT5A (h) CEREP screen
[2] = molecular target: Muscarinic acetylcholine receptor M4 (Homo sapiens) (UniProt P08173); conditions: Compound concentration 10.0 uM
[3] = molecular target: Alpha-2B adrenergic receptor (Homo sapiens) (UniProt P18089); conditions: Compound concentration 10.0 uM
[4] = molecular target: Type-1 angiotensin II receptor (Homo sapiens) (UniProt P30556); test: AT1 (h) CEREP screen; conditions: Compound concentration 10.0 uM
[5] = molecular target: Sodium-dependent serotonin transporter (Homo sapiens) (UniProt P31645); conditions: Compound concentration 10.0 uM
[6] = molecular target: T1, Peroxisome proliferator-activated receptor gamma (Homo sapiens) (UniProt P37231); test: (§1) PPARgamma In-house nuclear receptor screen; conditions: Compound concentration 3.0 uM
T1 sequence (whole entry): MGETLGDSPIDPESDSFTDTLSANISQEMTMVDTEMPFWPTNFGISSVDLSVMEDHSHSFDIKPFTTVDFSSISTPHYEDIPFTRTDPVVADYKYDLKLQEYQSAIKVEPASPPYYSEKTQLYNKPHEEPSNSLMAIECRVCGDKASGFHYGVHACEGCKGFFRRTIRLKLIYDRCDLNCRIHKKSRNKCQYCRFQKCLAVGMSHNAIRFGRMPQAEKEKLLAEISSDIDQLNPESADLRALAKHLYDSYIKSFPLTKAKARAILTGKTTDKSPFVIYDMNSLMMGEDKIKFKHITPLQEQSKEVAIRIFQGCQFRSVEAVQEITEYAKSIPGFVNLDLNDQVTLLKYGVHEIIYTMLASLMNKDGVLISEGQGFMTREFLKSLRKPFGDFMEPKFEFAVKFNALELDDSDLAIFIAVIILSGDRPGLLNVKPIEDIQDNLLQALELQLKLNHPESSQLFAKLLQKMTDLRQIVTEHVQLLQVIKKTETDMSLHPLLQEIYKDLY

[7] = molecular target: Peroxisome proliferator-activated receptor gamma (Homo sapiens, UniProt P37231); test: as §1
[8] = molecular target: 5-hydroxytryptamine receptor 2A (Homo sapiens) (UniProt P28223); conditions: Compound concentration 10.0 uM
[9] = molecular target: Epidermal growth factor receptor (Homo sapiens) (UniProt P00533); test: EGFR Invitrogen kinase panel; conditions: Compound concentration 10.0 uM
[10] = molecular target: Nuclear receptor subfamily 1 group I member 3 (Homo sapiens, UniProt Q14994); test: (§2) CAR In-house nuclear receptor screen
[11] = molecular target: T2, CAR (nuclear receptor subfamily 1 group I member 3) (Homo sapiens, UniProt Q14994); test: as §2; conditions: human; compound concentration 3 uM
T2 sequence (Q14994 whole entry): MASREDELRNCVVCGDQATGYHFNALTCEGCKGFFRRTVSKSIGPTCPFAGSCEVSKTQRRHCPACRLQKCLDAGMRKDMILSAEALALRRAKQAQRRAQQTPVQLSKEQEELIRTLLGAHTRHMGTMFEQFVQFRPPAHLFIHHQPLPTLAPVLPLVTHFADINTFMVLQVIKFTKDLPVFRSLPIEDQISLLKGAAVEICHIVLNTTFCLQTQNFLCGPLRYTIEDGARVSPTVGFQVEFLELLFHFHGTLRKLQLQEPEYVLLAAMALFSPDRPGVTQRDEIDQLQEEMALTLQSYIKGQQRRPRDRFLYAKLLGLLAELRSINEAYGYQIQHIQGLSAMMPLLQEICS

[12] = molecular target: Neuromedin-K receptor (Homo sapiens) (UniProt P29371); test: NK3 (h) CEREP screen
[13] = molecular target: Serine/threonine-protein kinase PAK 3 (Homo sapiens) (UniProt O75914); test: PAK3 Invitrogen kinase panel; conditions: Compound concentration 10.0 uM
[14] = molecular target: T3, Peroxisome proliferator-activated receptor delta (Homo sapiens) (UniProt Q03181); test: PPARdelta Indigo Bioscience nuclear receptor screen
T3 sequence (whole entry): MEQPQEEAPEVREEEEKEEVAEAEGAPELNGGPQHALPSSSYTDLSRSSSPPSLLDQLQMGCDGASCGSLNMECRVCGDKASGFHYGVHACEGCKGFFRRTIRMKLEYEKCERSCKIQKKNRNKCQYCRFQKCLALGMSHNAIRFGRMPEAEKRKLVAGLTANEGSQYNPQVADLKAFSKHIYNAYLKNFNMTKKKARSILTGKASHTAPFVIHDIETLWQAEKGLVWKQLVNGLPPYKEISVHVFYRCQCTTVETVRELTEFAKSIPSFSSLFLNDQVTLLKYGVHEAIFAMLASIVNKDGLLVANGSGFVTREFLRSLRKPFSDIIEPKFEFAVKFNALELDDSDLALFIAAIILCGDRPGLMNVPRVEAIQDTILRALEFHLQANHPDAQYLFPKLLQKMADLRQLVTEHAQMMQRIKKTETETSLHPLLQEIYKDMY

[15] = molecular target: Muscarinic acetylcholine receptor M3 (Homo sapiens) (UniProt P20309); test: M3 (h) CEREP screen
[16] = molecular target: Sodium-dependent dopamine transporter (Homo sapiens) (UniProt Q01959); conditions: Compound concentration 10.0 uM
[17] = molecular target: T4, Glucocorticoid receptor (Homo sapiens) (UniProt P04150); test: GR Indigo Bioscience nuclear receptor screen
T4 sequence (whole entry): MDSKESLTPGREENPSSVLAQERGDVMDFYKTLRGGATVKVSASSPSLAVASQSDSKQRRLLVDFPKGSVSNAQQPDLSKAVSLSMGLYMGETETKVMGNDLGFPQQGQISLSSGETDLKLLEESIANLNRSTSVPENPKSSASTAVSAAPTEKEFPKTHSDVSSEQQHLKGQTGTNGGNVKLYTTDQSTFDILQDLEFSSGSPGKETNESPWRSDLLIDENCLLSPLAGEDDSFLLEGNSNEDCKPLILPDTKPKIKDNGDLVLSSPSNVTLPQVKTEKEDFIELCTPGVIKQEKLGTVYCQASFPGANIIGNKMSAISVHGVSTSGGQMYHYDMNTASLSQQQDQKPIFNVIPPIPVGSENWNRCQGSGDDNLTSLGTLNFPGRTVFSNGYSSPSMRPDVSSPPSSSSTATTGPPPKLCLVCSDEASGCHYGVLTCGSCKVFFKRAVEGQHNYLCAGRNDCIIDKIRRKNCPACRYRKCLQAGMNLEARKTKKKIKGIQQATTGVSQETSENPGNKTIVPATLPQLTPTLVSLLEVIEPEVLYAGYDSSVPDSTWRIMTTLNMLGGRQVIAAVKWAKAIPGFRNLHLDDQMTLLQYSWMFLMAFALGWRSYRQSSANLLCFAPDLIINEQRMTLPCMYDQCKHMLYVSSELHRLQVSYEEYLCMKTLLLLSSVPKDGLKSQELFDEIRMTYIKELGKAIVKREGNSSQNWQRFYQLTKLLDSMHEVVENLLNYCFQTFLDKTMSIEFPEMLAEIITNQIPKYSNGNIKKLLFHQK

Muscarinic acetylcholine receptor M3 (Homo sapiens), sequence (P20309 whole entry, looked up): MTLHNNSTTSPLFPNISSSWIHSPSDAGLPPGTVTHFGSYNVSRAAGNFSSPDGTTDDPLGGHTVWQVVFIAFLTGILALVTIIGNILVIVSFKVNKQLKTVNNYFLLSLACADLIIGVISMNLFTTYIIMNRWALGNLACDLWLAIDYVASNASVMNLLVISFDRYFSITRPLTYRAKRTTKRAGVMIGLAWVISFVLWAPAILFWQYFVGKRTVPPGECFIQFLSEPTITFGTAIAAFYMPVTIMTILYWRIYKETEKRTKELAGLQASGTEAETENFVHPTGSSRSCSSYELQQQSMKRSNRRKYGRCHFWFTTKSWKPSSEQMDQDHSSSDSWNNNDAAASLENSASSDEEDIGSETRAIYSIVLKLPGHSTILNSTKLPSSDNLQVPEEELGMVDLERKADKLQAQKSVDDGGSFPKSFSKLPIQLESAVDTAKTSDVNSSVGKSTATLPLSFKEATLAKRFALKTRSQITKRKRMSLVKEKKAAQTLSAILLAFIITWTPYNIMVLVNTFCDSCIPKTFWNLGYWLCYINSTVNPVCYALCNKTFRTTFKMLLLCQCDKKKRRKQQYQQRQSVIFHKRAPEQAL
5-hydroxytryptamine receptor 5A (Homo sapiens), sequence (P47898 whole entry): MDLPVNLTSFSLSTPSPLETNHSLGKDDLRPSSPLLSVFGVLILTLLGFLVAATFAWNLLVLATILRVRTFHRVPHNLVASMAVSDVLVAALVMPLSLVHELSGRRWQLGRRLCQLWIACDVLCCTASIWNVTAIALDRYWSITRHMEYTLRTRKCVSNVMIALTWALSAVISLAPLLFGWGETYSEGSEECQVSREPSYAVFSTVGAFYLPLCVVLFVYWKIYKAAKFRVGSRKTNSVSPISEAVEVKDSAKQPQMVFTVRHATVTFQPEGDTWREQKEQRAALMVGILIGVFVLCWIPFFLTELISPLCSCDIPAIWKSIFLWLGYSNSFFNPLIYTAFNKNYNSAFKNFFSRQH
Neuromedin-K receptor (Homo sapiens), sequence (P29371 whole entry): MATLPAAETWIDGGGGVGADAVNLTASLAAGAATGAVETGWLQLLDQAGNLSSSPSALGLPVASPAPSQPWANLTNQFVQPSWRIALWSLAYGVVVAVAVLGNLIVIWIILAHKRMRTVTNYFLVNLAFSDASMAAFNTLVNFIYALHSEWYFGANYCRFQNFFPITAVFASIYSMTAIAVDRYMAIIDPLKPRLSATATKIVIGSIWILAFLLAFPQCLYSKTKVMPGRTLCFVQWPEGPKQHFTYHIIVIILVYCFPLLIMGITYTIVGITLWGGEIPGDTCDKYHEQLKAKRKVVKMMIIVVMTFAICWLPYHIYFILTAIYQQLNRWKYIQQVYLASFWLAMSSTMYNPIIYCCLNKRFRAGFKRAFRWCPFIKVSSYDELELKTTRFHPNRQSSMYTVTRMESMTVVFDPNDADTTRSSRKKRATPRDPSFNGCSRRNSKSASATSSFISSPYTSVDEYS
Epidermal growth factor receptor (Homo sapiens), sequence (P00533 whole entry): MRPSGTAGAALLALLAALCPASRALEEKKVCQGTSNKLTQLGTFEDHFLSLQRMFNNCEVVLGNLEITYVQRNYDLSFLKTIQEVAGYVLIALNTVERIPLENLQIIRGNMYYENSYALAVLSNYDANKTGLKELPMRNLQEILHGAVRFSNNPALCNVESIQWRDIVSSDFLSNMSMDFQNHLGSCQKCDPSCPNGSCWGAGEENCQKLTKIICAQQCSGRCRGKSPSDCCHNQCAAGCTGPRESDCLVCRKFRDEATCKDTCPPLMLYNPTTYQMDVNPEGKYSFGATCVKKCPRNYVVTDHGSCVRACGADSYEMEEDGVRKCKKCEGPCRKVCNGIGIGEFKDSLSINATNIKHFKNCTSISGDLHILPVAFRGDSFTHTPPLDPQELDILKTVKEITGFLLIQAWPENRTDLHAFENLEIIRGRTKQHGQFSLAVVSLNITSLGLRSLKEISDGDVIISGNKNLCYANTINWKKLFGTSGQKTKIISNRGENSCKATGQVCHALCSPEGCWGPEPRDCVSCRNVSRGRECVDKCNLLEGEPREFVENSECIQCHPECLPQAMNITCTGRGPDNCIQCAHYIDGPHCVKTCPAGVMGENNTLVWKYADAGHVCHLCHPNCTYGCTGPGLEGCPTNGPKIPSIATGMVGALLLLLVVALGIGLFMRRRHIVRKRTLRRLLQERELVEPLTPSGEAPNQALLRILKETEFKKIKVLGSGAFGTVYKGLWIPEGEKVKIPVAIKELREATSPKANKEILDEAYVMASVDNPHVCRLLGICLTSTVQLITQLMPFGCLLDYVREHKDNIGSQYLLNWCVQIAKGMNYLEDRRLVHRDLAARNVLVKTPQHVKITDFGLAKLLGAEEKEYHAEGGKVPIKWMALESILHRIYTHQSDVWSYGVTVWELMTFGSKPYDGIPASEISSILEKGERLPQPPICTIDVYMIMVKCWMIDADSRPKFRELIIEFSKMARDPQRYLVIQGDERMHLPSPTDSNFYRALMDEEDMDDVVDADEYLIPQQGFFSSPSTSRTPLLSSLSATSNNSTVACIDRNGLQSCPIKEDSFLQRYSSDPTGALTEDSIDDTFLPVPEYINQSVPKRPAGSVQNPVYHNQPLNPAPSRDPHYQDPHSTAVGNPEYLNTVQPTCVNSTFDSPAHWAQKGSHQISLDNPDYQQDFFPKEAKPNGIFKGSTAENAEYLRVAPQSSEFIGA
Muscarinic acetylcholine receptor M4 (Homo sapiens), sequence (P08173 whole entry): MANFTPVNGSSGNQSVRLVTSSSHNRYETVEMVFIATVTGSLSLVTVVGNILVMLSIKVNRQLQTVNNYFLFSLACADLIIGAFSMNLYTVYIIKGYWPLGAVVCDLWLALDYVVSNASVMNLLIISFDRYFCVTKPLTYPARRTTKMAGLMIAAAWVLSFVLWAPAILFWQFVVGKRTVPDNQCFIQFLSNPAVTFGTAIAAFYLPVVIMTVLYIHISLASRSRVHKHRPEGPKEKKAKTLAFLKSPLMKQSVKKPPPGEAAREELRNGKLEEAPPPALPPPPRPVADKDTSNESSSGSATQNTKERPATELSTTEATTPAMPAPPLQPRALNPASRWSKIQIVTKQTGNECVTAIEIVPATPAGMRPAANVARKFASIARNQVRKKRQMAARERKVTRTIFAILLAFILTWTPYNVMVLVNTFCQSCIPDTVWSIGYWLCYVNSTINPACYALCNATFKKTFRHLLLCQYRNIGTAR
Type-1 angiotensin II receptor (Homo sapiens), sequence (P30556 whole entry): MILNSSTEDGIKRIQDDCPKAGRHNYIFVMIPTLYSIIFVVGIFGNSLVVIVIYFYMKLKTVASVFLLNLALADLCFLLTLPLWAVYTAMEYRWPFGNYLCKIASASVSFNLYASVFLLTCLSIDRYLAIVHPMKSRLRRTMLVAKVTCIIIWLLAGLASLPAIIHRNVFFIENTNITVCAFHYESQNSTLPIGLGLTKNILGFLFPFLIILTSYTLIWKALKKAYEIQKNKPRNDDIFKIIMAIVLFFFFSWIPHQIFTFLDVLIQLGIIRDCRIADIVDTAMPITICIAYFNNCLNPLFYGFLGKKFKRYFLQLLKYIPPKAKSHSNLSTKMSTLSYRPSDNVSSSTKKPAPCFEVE
Sodium-dependent dopamine transporter (Homo sapiens), sequence (Q01959 whole entry): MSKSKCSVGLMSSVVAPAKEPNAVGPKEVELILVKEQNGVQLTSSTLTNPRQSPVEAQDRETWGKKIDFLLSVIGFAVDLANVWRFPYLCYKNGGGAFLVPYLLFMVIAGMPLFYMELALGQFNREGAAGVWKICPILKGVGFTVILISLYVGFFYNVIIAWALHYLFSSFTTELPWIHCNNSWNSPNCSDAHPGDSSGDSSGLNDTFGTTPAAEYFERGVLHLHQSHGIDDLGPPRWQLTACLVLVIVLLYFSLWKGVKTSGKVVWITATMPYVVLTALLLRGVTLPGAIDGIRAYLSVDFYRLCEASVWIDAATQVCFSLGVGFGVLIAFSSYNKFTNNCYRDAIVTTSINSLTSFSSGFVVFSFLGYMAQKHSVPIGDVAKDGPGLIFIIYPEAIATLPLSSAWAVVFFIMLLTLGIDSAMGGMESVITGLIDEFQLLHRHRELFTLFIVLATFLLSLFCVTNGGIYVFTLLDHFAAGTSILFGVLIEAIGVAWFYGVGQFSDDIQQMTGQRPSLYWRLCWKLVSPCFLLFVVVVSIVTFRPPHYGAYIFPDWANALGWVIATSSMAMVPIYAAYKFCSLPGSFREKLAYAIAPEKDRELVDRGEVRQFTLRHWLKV
Alpha-2B adrenergic receptor (Homo sapiens), sequence (P18089 whole entry): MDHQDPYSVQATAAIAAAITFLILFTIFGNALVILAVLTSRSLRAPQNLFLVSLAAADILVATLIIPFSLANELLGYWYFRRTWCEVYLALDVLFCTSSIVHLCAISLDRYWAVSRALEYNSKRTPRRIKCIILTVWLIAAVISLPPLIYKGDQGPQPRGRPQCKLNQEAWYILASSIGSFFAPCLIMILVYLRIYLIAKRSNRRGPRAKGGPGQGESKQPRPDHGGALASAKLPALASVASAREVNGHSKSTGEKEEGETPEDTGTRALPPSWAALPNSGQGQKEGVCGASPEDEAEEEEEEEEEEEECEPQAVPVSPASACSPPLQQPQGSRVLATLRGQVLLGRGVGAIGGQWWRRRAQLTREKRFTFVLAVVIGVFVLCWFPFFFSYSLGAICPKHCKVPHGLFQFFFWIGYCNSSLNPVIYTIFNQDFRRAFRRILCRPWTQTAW
5-hydroxytryptamine receptor 2A (Homo sapiens), sequence (P28223 whole entry): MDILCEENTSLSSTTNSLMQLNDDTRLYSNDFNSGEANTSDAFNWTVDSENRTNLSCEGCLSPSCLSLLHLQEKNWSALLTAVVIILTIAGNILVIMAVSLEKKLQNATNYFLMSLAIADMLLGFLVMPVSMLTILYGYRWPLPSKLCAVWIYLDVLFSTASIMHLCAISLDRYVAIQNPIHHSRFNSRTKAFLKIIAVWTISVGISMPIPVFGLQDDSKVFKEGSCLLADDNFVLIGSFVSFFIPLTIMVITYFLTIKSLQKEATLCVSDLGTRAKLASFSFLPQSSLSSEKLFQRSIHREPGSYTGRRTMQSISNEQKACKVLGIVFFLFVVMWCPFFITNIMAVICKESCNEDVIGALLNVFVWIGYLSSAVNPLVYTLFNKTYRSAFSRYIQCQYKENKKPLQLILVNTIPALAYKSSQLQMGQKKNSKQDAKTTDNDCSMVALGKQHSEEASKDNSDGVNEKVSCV

Q: Which inhibition ([1]; Compound concentration 1.0 uM) does the source give for `COc1nc2ccc([C@@](O)(c3ccccc3)C3CCN(C(C)=O)CC3)cc2c(Cl)c1Cc1ccc(-n2cccn2)cc1` [JNJ-54119936] here?
A: Its inhibition is 13%.

Q: What about the inhibition ([1]; Compound concentration 10.0 uM) of the same compound?
A: The inhibition was 23%.

Q: And the inhibition [2]?
A: The inhibition was 8.86%.

Q: What about the inhibition [3] of the same compound?
A: The inhibition was 54.6%.

Q: What about the inhibition [4] of the same compound?
A: The inhibition was 11%.

Q: And the inhibition [5]?
A: Its inhibition is 5.62%.

Q: What about the inhibition [6] of the same compound?
A: The inhibition was 28.2%.

Q: What about the IC50 [7] of the same compound?
A: Its IC50 is 5.4 µM.

Q: What about the inhibition [8] of the same compound?
A: The inhibition was 6.87%.

Q: And the inhibition [9]?
A: The inhibition was -4%.

Q: And the IC50 [10]?
A: Its IC50 is 8.4 µM.

Q: What about the inhibition at 3 µM [11] of the same compound?
A: Its inhibition at 3 µM is 31.2% (not active).

Q: And the inhibition ([12]; Compound concentration 1.0 uM)?
A: The inhibition was 18%.

Q: And the inhibition ([12]; Compound concentration 10.0 uM)?
A: The inhibition was 22%.

Q: And the inhibition [13]?
A: The inhibition was 6%.

Q: What about the inhibition ([14]; Compound concentration 0.3 uM) of the same compound?
A: The inhibition was -3.53%.

Q: And the inhibition ([14]; Compound concentration 1.0 uM)?
A: The inhibition was -5.27%.

Q: What about the inhibition ([14]; Compound concentration 3.0 uM) of the same compound?
A: Its inhibition is 0.29%.

Q: And the inhibition ([15]; Compound concentration 1.0 uM)?
A: The inhibition was 21%.

Q: And the inhibition ([15]; Compound concentration 10.0 uM)?
A: The inhibition was 19%.

Q: And the inhibition [16]?
A: The inhibition was 21%.

Q: What about the inhibition ([17]; Compound concentration 0.3 uM) of the same compound?
A: The inhibition was 4.11%.

Q: And the inhibition ([17]; Compound concentration 1.0 uM)?
A: Its inhibition is 2.23%.

Q: And the inhibition ([17]; Compound concentration 3.0 uM)?
A: Its inhibition is 12.6%.
